Assay results from ChEMBL document CHEMBL5728846, “6H-thieno[2,3-e][1,2,4]triazolo[3,4-c][1,2,4]triazepine derivative” (2021).

Assay: NF-keppaB Inhibitory Activity Evaluation Test: A549/NF-κB-luc cells (available from Panomics, Cat No. LR0051) were prepared at 375,000 cells/mL in the culture medium. The 375,000 cells/mL A549/NF-κB-luc cell suspension was seeded at 80 μL each on a white 96-well plate (available from Greiner, Cat No. 655073). One hour after seeding the cells, 10 μL of 2% DMSO solution (control) and each compound solution in each concentration were added to each well of the 96-well plate. One hour after the addition of each compound solution, 10 ng/mL of the TNF-α solution (10 μL) was added to each well of the 96-well plate. Three hours after the addition of 10 ng/mL of the TNF-α solution, 100 μL of Steady-Glo reagent (available from Promega, Cat No. E2510) was added to each well of the 96-well plate. After 30 to 90 minutes of the addition of the Steady-Glo reagent, the luminescence intensity of each well was detected by EnVision multilabel counter (available from PerkinElmer).

Cc1sc2c(c1C)C(c1ccc(Cl)cc1)=NN(Cc1cccc(F)n1)c1nnc(C)n1-2 showed an IC50 of 0.0336 µM.
